PubChem BioAssay (NCI)
Several values for one entry are separate records, joined by “and”; a condition that tells them apart may be missing. Identical values can stand only once.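 The compound was tested at five concentrations on cells cultured in 96-well plates, with a 48-hour exposure period. GI50 = concentration required for 50% inhibition of growth. TGI is the concentration that stops growth completely.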

Legend:
Assay in all cases: growth of human tumour cells (NCI), 48 h
LOX IMVI melanoma = system: LOX IMVI melanoma
SF-268 CNS = system: SF-268 CNS
HCT-116 colon = system: HCT-116 colon
OVCAR-4 ovarian = system: OVCAR-4 ovarian
SNB-19 CNS = system: SNB-19 CNS
RXF 393 renal = system: RXF 393 renal
M14 melanoma = system: M14 melanoma
NCI-H226 lung = system: NCI-H226 lung
SK-MEL-28 melanoma = system: SK-MEL-28 melanoma
TK-10 renal = system: TK-10 renal

## CC(C)=CCNc1ncnc2c1ncn2CCC#N
LOX IMVI melanoma
  TGI: > 100 µM
SF-268 CNS
  TGI: > 100 µM
HCT-116 colon
  TGI: > 100 µM
OVCAR-4 ovarian
  TGI: > 100 µM
SNB-19 CNS
  TGI: > 100 µM
RXF 393 renal
  TGI: > 100 µM
M14 melanoma
  TGI: > 100 µM
NCI-H226 lung
  TGI: > 100 µM
SK-MEL-28 melanoma
  TGI: > 100 µM
TK-10 renal
  TGI: > 100 µM

## CSc1cnc2ccccc2c1SC1CN(Cc2ccccc2)c2ccccc2C1=O (stereo unspecified)
LOX IMVI melanoma
  TGI: > 100 µM
SF-268 CNS
  TGI: > 100 µM
HCT-116 colon
  TGI: > 100 µM
OVCAR-4 ovarian
  TGI: > 100 µM
SNB-19 CNS
  TGI: > 100 µM
RXF 393 renal
  TGI: > 100 µM
M14 melanoma
  TGI: > 100 µM
NCI-H226 lung
  TGI: > 100 µM
SK-MEL-28 melanoma
  TGI: > 100 µM
TK-10 renal
  TGI: > 100 µM

## OCc1ccc(C2CC(c3ccco3)=NN2c2ccccc2)o1 (stereo unspecified)
LOX IMVI melanoma
  TGI: > 100 µM
SF-268 CNS
  TGI: > 100 µM
HCT-116 colon
  TGI: > 100 µM
OVCAR-4 ovarian
  TGI: > 100 µM
SNB-19 CNS
  TGI: > 100 µM
RXF 393 renal
  TGI: > 100 µM
M14 melanoma
  TGI: > 100 µM
NCI-H226 lung
  TGI: > 100 µM
SK-MEL-28 melanoma
  TGI: > 100 µM
TK-10 renal
  TGI: > 100 µM

## Nc1nc(Cl)cc(NCC2(CO)CCCC2)n1
LOX IMVI melanoma
  TGI: > 100 µM
SF-268 CNS
  TGI: > 100 µM
HCT-116 colon
  TGI: > 100 µM
OVCAR-4 ovarian
  TGI: > 100 µM
SNB-19 CNS
  TGI: > 100 µM
RXF 393 renal
  TGI: > 100 µM
M14 melanoma
  TGI: > 100 µM
NCI-H226 lung
  TGI: > 100 µM
SK-MEL-28 melanoma
  TGI: > 100 µM
TK-10 renal
  TGI: > 100 µM

## C=C1CN2CC(=C)CN(C1)CS(=O)(=O)N1CC(=C)CN(CC(=C)C1)S(=O)(=O)N1CC(=C)CN(CC(=C)C1)S(=O)(=O)C2
LOX IMVI melanoma
  TGI: > 100 µM
SF-268 CNS
  TGI: > 100 µM
HCT-116 colon
  TGI: > 100 µM
OVCAR-4 ovarian
  TGI: > 100 µM
SNB-19 CNS
  TGI: > 100 µM
RXF 393 renal
  TGI: 56.8 µM
M14 melanoma
  TGI: > 100 µM
NCI-H226 lung
  TGI: 71.5 µM
SK-MEL-28 melanoma
  TGI: 45.6 µM
TK-10 renal
  TGI: 51.5 µM

## CN(C)CCOC1(Cc2ccc(F)cc2)CCC(C(C)(C)C)CC1 (stereo unspecified)
LOX IMVI melanoma
  TGI: 7.05 µM and 10.5 µM
SF-268 CNS
  TGI: 27.2 µM and 28 µM
HCT-116 colon
  TGI: 15.6 µM and 15.9 µM
OVCAR-4 ovarian
  GI50: 4.33 µM and 9.3 µM
  TGI: 15 µM and 22.5 µM
SNB-19 CNS
  TGI: 24.6 µM and 19.4 µM
RXF 393 renal
  TGI: 8.04 µM
M14 melanoma
  TGI: 3.27 µM and 3.93 µM
NCI-H226 lung
  TGI: 27.5 µM and 26.8 µM
SK-MEL-28 melanoma
  TGI: 14.7 µM and 12 µM
TK-10 renal
  TGI: 20.5 µM and 24.7 µM

## COc1ccc(-c2nn(-c3ccc(NC(=O)Nc4cc(C(F)(F)F)cc(C(F)(F)F)c4)cc3)cc2-c2ccncc2)cc1Cl
LOX IMVI melanoma
  GI50: 3.31 µM
  TGI: > 100 µM
SF-268 CNS
  GI50: 3.71 µM
  TGI: 85.8 µM
HCT-116 colon
  GI50: 1.53 µM
  TGI: 3.52 µM
OVCAR-4 ovarian
  GI50: 2.82 µM
  TGI: 60.7 µM
SNB-19 CNS
  GI50: 4 µM
  TGI: 27.3 µM
RXF 393 renal
  GI50: 1.69 µM
  TGI: 3.87 µM
M14 melanoma
  GI50: 1.91 µM
  TGI: 4.4 µM
NCI-H226 lung
  GI50: 4.1 µM
  TGI: 34.2 µM
SK-MEL-28 melanoma
  GI50: 2.22 µM
  TGI: 6.18 µM
TK-10 renal
  GI50: 1.85 µM
  TGI: 7.25 µM

## COc1ccc(NS(=O)(=O)c2ccc(NC(NC(=O)CC(C)C)(C(F)(F)F)C(F)(F)F)cc2)nn1
LOX IMVI melanoma
  TGI: > 100 µM
SF-268 CNS
  TGI: > 100 µM
HCT-116 colon
  TGI: > 100 µM
OVCAR-4 ovarian
  TGI: > 100 µM
SNB-19 CNS
  TGI: > 100 µM
RXF 393 renal
  TGI: > 100 µM
M14 melanoma
  TGI: > 100 µM
NCI-H226 lung
  TGI: > 100 µM
SK-MEL-28 melanoma
  TGI: > 100 µM
TK-10 renal
  TGI: > 100 µM

## N#CC1=C(N)N(c2ccccc2)C(c2ccccc2)C1(C#N)C#N (stereo unspecified)
LOX IMVI melanoma
  TGI: 30.3 µM
SF-268 CNS
  TGI: 55.4 µM
HCT-116 colon
  TGI: 29.4 µM
OVCAR-4 ovarian
  TGI: 51.1 µM
SNB-19 CNS
  TGI: 43.2 µM
RXF 393 renal
  TGI: 33.6 µM
M14 melanoma
  TGI: 44.9 µM
NCI-H226 lung
  TGI: 36.2 µM
SK-MEL-28 melanoma
  TGI: 31.1 µM
TK-10 renal
  TGI: 31.8 µM

## Cn1c2ccccc2c(=NNc2cccc(C(=O)O)c2)c2ccccc21
LOX IMVI melanoma
  TGI: 17.9 µM
SF-268 CNS
  TGI: 39 µM
HCT-116 colon
  TGI: 28.2 µM
OVCAR-4 ovarian
  TGI: 40.3 µM
SNB-19 CNS
  TGI: > 100 µM
RXF 393 renal
  TGI: 22 µM
M14 melanoma
  TGI: 39.1 µM
NCI-H226 lung
  TGI: 48.6 µM
SK-MEL-28 melanoma
  TGI: 35.7 µM
TK-10 renal
  TGI: 59.2 µM

## CC(=O)OCC1OC(n2c3c(cc(C#N)c2=S)CCCCC3)C(OC(C)=O)C(OC(C)=O)C1OC(C)=O (stereo unspecified)
LOX IMVI melanoma
  TGI: > 100 µM
SF-268 CNS
  TGI: > 100 µM
HCT-116 colon
  TGI: > 100 µM
OVCAR-4 ovarian
  TGI: > 100 µM
SNB-19 CNS
  TGI: > 100 µM
RXF 393 renal
  TGI: > 100 µM
M14 melanoma
  TGI: > 100 µM
NCI-H226 lung
  TGI: > 100 µM
SK-MEL-28 melanoma
  TGI: > 100 µM
TK-10 renal
  TGI: > 100 µM

## COC(=O)C1=C(C)NC(C)=C(C(=O)OC)C1c1nc2sccn2c1[N+](=O)[O-]
LOX IMVI melanoma
  TGI: > 100 µM
SF-268 CNS
  TGI: > 100 µM
HCT-116 colon
  TGI: > 100 µM
OVCAR-4 ovarian
  TGI: > 100 µM
SNB-19 CNS
  TGI: > 100 µM
RXF 393 renal
  TGI: > 100 µM
M14 melanoma
  TGI: > 100 µM
NCI-H226 lung
  TGI: > 100 µM
SK-MEL-28 melanoma
  TGI: > 100 µM
TK-10 renal
  TGI: > 100 µM

## CCOc1ccc(/C=C2/C(=O)N=C(NC(C)=O)N2C)cc1
LOX IMVI melanoma
  TGI: > 100 µM
SF-268 CNS
  TGI: > 100 µM
HCT-116 colon
  TGI: > 100 µM
OVCAR-4 ovarian
  TGI: > 100 µM
SNB-19 CNS
  TGI: > 100 µM
RXF 393 renal
  TGI: > 100 µM
M14 melanoma
  TGI: > 100 µM
NCI-H226 lung
  TGI: > 100 µM
SK-MEL-28 melanoma
  TGI: > 100 µM
TK-10 renal
  TGI: > 100 µM

## COc1ccc(/C=C2\N=C(SC)NC2=O)cc1
LOX IMVI melanoma
  TGI: > 100 µM
SF-268 CNS
  TGI: > 100 µM
HCT-116 colon
  TGI: > 100 µM
OVCAR-4 ovarian
  TGI: > 100 µM
SNB-19 CNS
  TGI: > 100 µM
RXF 393 renal
  TGI: > 100 µM
M14 melanoma
  TGI: > 100 µM
NCI-H226 lung
  TGI: > 100 µM
SK-MEL-28 melanoma
  TGI: > 100 µM
TK-10 renal
  TGI: > 100 µM

## C#C[C@]1(O)CC[C@H]2[C@@H]3CCC4=C/C(=N/OC(=O)c5cccc6c(=O)c7ccccc7[nH]c56)CC[C@@H]4[C@H]3CC[C@@]21C
LOX IMVI melanoma
  TGI: > 100 µM
SF-268 CNS
  TGI: > 100 µM
HCT-116 colon
  TGI: > 100 µM
OVCAR-4 ovarian
  TGI: > 100 µM
SNB-19 CNS
  TGI: > 100 µM
RXF 393 renal
  TGI: > 100 µM
M14 melanoma
  TGI: > 100 µM
NCI-H226 lung
  TGI: > 100 µM
SK-MEL-28 melanoma
  TGI: > 100 µM
TK-10 renal
  TGI: > 100 µM

## N#Cc1c(Cl)cc(Cl)n2c1nc1ccccc12
LOX IMVI melanoma
  TGI: 18.7 µM
SF-268 CNS
  TGI: 40.1 µM
HCT-116 colon
  TGI: 29.8 µM
OVCAR-4 ovarian
  TGI: 34 µM
SNB-19 CNS
  TGI: 50.7 µM
RXF 393 renal
  TGI: 26.7 µM
M14 melanoma
  TGI: 24.5 µM
NCI-H226 lung
  TGI: 33.8 µM
SK-MEL-28 melanoma
  TGI: 20.3 µM
TK-10 renal
  TGI: 18.1 µM
